Test results as given in article PMC4380987 (Protein Science : A Publication of the Protein Society, 2014).

Target: Edmanase (engineered cruzain) (Trypanosoma cruzi, UniProt P25779, C147G/G187S/A260C/L282Y)
Type: biochemical

Work on CC(=O)c1nc(Nc2ccccc2)sc1C [1-(2-anilino-5-methyl-1,3-thiazol-4-yl)-ethanone] yielded an IC50 of 1140 µM.
